{
  "source": "the NIST ThermoML archive (doi:10.1021/je060380p)",
  "conditions": "Crystal; visual observation",
  "note": "Numbers after ± are expanded uncertainties.",
  "data": [
    {"compound": "c1ccc2cc3ccccc3cc2c1", "note": "[anthracene]", "values": [
      {"measurement": "Normal melting temperature", "result": "216 ± 1", "unit": "°C"}
    ]}
  ]
}
